Laboratory results from patent publication US20210253626A1, “PRODRUGS OF FULVESTRANT” (KASHIV BIOSCIENCES, LLC, priority 2018, published 2021).
Converted amounts (≈) assume the structure as drawn. Structures can show the parent of a compound that is named as a salt. Where two headings read alike, the source gives them in different places. Blank lines part the entries; values can stand above or below the compound they belong to.

Experiments:
physchem [1] = conditions: thermodynamic from solid
Procedure: Solubility Test Procedure II:
(§1) Stock solutions of the test compounds and fulvestrant were prepared in phosphate buffered saline (PBS) pH 7.4 and sodium acetate buffer pH 4.0, which was incubated for 24 h at room temperature with constant mixing at 100 rpm in the same tube. After incubation, the tubes were centrifuged for 20 min. at 10000 rpm. Later 200 μL of sample was taken and filtered. The filtrate was analysed by HPLC-UV against 0.0012 mg/ml, 0.037 mg/mL, 0.3 mg/ml, 0.1 mg/ml and 1 mg/ml of dimethylsulfoxide (DMSO) stock.
(§2) Solubility (μg/ml)=[Peak area of sample/Peak area of standard]×Concentration of standard % Aqueous solubility: [Test solubility (μg/ml)/incubation concentration (μg/ml)]×100

[2] = Kinetic solubility (Solubility Test Procedure I); conditions: for Increase in solubility compare to fulvestrant (Fold): kinetic aqueous solubility at pH 7.4; for solubility at 4 h: phosphate buffer, 25 °C, pH 7.4, aqueous buffer, kinetic from dmso stock
Procedure: Solubility Test Procedure I:
(§3) A 50 mmol stock solution for each test compound was prepared using dimethyl sulfoxide. From this stock solution, a working solution of 1 mmol was prepared by diluting with dimethyl sulfoxide. The working solution of 1 mmol was then serially diluted using dimethyl sulfoxide. Then, 5-20 μl of stock solution is added to 1 ml of phosphate buffer solution of pH 7.4. The solution was then stirred for 4 h at 25° C. in order to reach equilibrium. After this incubation period, the solution was filtered using 0.45 micron PVDF injector filters to remove the insoluble fraction of the compound and subsequently filtrate is taken for quantification using UV Detector. The concentration of test sample was calculated using the linearity/calibration curve.

[3] = 4 h, pH 7.4
Procedure: Solubility Test Procedure I:
as §3

physchem [4] = conditions: 25 °C, pH 7.4, aqueous buffer, kinetic from dmso stock
Procedure: Solubility Test Procedure I:
as §3

[5] = Thermodynamic solubility (Solubility Test Procedure II); conditions: for solubility thermodynamic at 24 h: thermodynamic from solid
Procedure: Solubility Test Procedure II:
as §1, §2

[6] = pH 4, aqueous buffer, Thermodynamic solubility (mg/mL) pH 4.0, sodium acetate buffer pH 4.0, 24 h room temperature, test compound concentration 1 mg/mL

SMILES: CN1CCN(C(=O)Oc2ccc3c(c2)C[C@@H](CCCCCCCCC[S+]([O-])CCCC(F)(F)C(F)(F)F)[C@@H]2[C@@H]3CC[C@]3(C)[C@@H](O)CC[C@@H]23)CC1 (stereo partly drawn) [Example 4, (7R,8R,9S,13S,14S,17S)-17-hydroxy-13-methyl-7-(9-((4,4,5,5,5-pentafluoropentyl)sulfinyl)nonyl)-7,8,9,11,12,13,14,15,16,17-decahydro-6H-cyclopenta[a]phenanthren-3-yl 4-methylpiperazine-1-carboxylate]
- solubility thermodynamic at 24 h (physchem [1]; [6]): 790 µg/mL (≈ 1080 µM)
- Increase in solubility compare to fulvestrant (Fold) [2]: 97 Fold
- solubility at 4 h [2]: 0.5 µM (≈ 0.366 µg/mL)

SMILES: CN(C)CC(=O)Oc1ccc2c(c1)C[C@@H](CCCCCCCCC[S+]([O-])CCCC(F)(F)C(F)(F)F)[C@@H]1[C@@H]2CC[C@]2(C)[C@@H](O)CC[C@@H]12 (stereo partly drawn) [Example 1, (7R,8R,9S,13S,14S,17S)-17-hydroxy-13-methyl-7-(9-((4,4,5,5,5-pentafluoropentyl)sulfinyl)nonyl)-7,8,9,11,12,13,14,15,16,17-decahydro-6H-cyclopenta[a]phenanthren-3-yl dimethylglycinate]
- Increase in solubility compare to fulvestrant (Fold) [3]: 8 Fold
- solubility at 4 h (physchem [4]): 0.04 µM (≈ 0.0277 µg/mL)

SMILES: C[C@]12CC[C@@H]3c4ccc(OC(=O)N5CCC(N6CCCCC6)CC5)cc4C[C@@H](CCCCCCCCC[S+]([O-])CCCC(F)(F)C(F)(F)F)[C@H]3[C@@H]1CC[C@@H]2O (stereo partly drawn) [Example 9, (7R,8R,9S,13S,14S,17S)-17-hydroxy-13-methyl-7-(9-((4,4,5,5,5-pentafluoropentyl)sulfinyl)nonyl)-7,8,9,11,12,13,14,15,16,17-decahydro-6H-cyclopenta[a]phenanthren-3-yl[1,4′-bipiperidine]-1′-carboxylate]
- solubility thermodynamic at 24 h (physchem [1]; [6]): 700 µg/mL (≈ 874 µM)
- Increase in solubility compare to fulvestrant (Fold) [2]: 22 Fold
- solubility at 4 h [2]: 0.1 µM (≈ 0.0801 µg/mL)

SMILES: C[C@]12CC[C@@H]3c4ccc(OC(=O)CN5CCCC5)cc4C[C@@H](CCCCCCCCC[S+]([O-])CCCC(F)(F)C(F)(F)F)[C@H]3[C@@H]1CC[C@@H]2O (stereo partly drawn) [Example 8, (7R,8R,9S,13S,14S,17S)-17-hydroxy-13-methyl-7-(9-((4,4,5,5,5-pentafluoropentyl)sulfinyl)nonyl)-7,8,9,11,12,13,14,15,16,17-decahydro-6H-cyclopenta[a]phenanthren-3-yl 2-(pyrrolidin-1-yl)acetate]
- Increase in solubility compare to fulvestrant (Fold) [3]: 3500 Fold
- solubility at 4 h (physchem [4]): 17.1 µM (≈ 12.3 µg/mL)

SMILES: CN1CCCN(C(=O)Oc2ccc3c(c2)C[C@@H](CCCCCCCCC[S+]([O-])CCCC(F)(F)C(F)(F)F)[C@@H]2[C@@H]3CC[C@]3(C)[C@@H](O)CC[C@@H]23)CC1 (stereo partly drawn) [Example 19, (7R,8R,9S,13S,14S,17S)-17-hydroxy-13-methyl-7-(9-((4,4,5,5,5-pentafluoropentyl)sulfinyl)nonyl)-7,8,9,11,12,13,14,15,16,17-decahydro-6H-cyclopenta[a]phenanthren-3-yl 4-methyl-1,4-diazepane-1-carboxylate]
- solubility thermodynamic at 24 h (physchem [1]; pH 4, aqueous buffer, Thermodynamic solubility (mg/mL) pH 4.0, sodium acetate buffer pH 4.0, 24 h room temperature, test compound concentration 2 mg/mL): 1050 µg/mL (≈ 1410 µM)

SMILES: C[C@]12CC[C@@H]3c4ccc(OP(=O)(O)O)cc4C[C@@H](CCCCCCCCC[S+]([O-])CCCC(F)(F)C(F)(F)F)[C@H]3[C@@H]1CC[C@@H]2O (stereo partly drawn) [Example 21, (7R,8R,9S,13S,14S,17S)-17-hydroxy-13-methyl-7-(9-((4,4,5,5,5-pentafluoropentyl)sulfinyl)nonyl)-7,8,9,11,12,13,14,15,16,17-decahydro-6H-cyclopenta[a]phenanthren-3-yl dihydrogen phosphate disodium]
- solubility thermodynamic at 24 h (physchem [1]; pH 7.4, aqueous buffer, Thermodynamic solubility (mg/mL) pH 7.4, PBS pH 7.4, 24 h room temperature, test compound concentration 5 mg/mL): > 5000 µg/mL

SMILES: C[C@]12CC[C@@H]3c4ccc(OC(=O)CCC(=O)O)cc4C[C@@H](CCCCCCCCC[S+]([O-])CCCC(F)(F)C(F)(F)F)[C@H]3[C@@H]1CC[C@@H]2O (stereo partly drawn) [Example 5, 4-(((7R,8R,9S,13S,14S,17S)-17-hydroxy-13-methyl-7-(9-((4,4,5,5,5-pentafluoropentyl)sulfinyl)nonyl)-7,8,9,11,12,13,14,15,16,17-decahydro-6H-cyclopenta[a]phenanthren-3-yl)oxy)-4-oxobutanoic acid]
- Increase in solubility compare to fulvestrant (Fold) [3]: 295 Fold
- solubility at 4 h (physchem [4]): 1.4 µM (≈ 0.99 µg/mL)

SMILES: C[C@]12CC[C@@H]3c4ccc(OC(=O)CN5CCCCC5)cc4C[C@@H](CCCCCCCCC[S+]([O-])CCCC(F)(F)C(F)(F)F)[C@H]3[C@@H]1CC[C@@H]2O (stereo partly drawn) [Example 3, (7R,8R,9S,13S,14S,17S)-17-hydroxy-13-methyl-7-(9-((4,4,5,5,5-pentafluoropentyl)sulfinyl)nonyl)-7,8,9,11,12,13,14,15,16,17-decahydro-6H-cyclopenta[a]phenanthren-3-yl 2-(piperidin-1-yl)acetate hydrochloride]
- Increase in solubility compare to fulvestrant (Fold) [2]: 669 Fold
- solubility at 4 h [2]: 3.3 µM

SMILES: CC(C)[C@H](NC(=O)Oc1ccc2c(c1)C[C@@H](CCCCCCCCC[S+]([O-])CCCC(F)(F)C(F)(F)F)[C@@H]1C2CC[C@]2(C)[C@@H](O)CC[C@@H]12)C(=O)O (stereo partly drawn) [Example 45, (2S)-2-(((7R,8R,13S,14S,17S)-17-hydroxy-13-methyl-7-(9-(4,4,5,5,5-pentafluoropentylsulfinyl)nonyl)-7,8,9,11,12,13,14,15,16,17-decahydro-6H-cyclopenta[a]phenanthren-3-yloxy)carbonylamino)-3-methylbutanoic acid]
- solubility thermodynamic (physchem [1]; pH 7.4, aqueous buffer): 1250 µg/mL (≈ 1670 µM)

SMILES: CN1CCC(CC(=O)Oc2ccc3c(c2)C[C@@H](CCCCCCCCC[S+]([O-])CCCC(F)(F)C(F)(F)F)[C@@H]2[C@@H]3CC[C@]3(C)[C@@H](O)CC[C@@H]23)CC1 (stereo partly drawn) [Example 15, (7R,8R,9S,13S,14S,17S)-17-hydroxy-13-methyl-7-(9-((4,4,5,5,5-pentafluoropentyl)sulfinyl)nonyl)-7,8,9,11,12,13,14,15,16,17-decahydro-6H-cyclopenta[a]phenanthren-3-yl 2-(1-methylpiperidin-4-yl)acetate]
- solubility thermodynamic at 24 h (physchem [1]; pH 4, aqueous buffer): 630 µg/mL (≈ 845 µM)

SMILES: C[C@]12CC[C@@H]3c4ccc(OC(=O)CN5CCOCC5)cc4C[C@@H](CCCCCCCCC[S+]([O-])CCCC(F)(F)C(F)(F)F)[C@H]3[C@@H]1CC[C@@H]2O (stereo partly drawn) [Example 10, (7R,8R,9S,13S,14S,17S)-17-hydroxy-13-methyl-7-(9-((4,4,5,5,5-pentafluoropentyl)sulfinyl)nonyl)-7,8,9,11,12,13,14,15,16,17-decahydro-6H-cyclopenta[a]phenanthren-3-yl 2-morpholinoacetate]
- Increase in solubility compare to fulvestrant (Fold) [3]: 32 Fold
- solubility at 4 h (physchem [4]): 0.2 µM (≈ 0.147 µg/mL)

SMILES: C[C@]12CCC3c4ccc(OCOP(=O)(O)O)cc4C[C@@H](CCCCCCCCC[S+]([O-])CCCC(F)(F)C(F)(F)F)[C@H]3[C@@H]1CC[C@@H]2O (stereo partly drawn) [Example 44, ((7R,8R,13S,14S,17S)-17-hydroxy-13-methyl-7-(9-(4,4,5,5,5-pentafluoropentylsulfinyl)nonyl)-7,8,9,11,12,13,14,15,16,17-decahydro-6H-cyclopenta[a]phenanthren-3-yloxy)methyl dihydrogen phosphate]
- solubility thermodynamic at 24 h (physchem [1]; pH 4, aqueous buffer): > 1000 µg/mL
- solubility thermodynamic at 24 h (physchem [1]; pH 7.4, aqueous buffer): > 15000 µg/mL

SMILES: C[C@]12CC[C@@H]3c4ccc(OP(=O)(O)O)cc4C[C@@H](CCCCCCCCC[S+]([O-])CCCC(F)(F)C(F)(F)F)[C@H]3[C@@H]1CC[C@@H]2O (stereo partly drawn) [Example 20, (7R,8R,9S,13S,14S,17S)-17-hydroxy-13-methyl-7-(9-((4,4,5,5,5-pentafluoropentyl)sulfinyl)nonyl)-7,8,9,11,12,13,14,15,16,17-decahydro-6H-cyclopenta[a]phenanthren-3-yl dihydrogen phosphate]
- solubility thermodynamic (physchem [1]; pH 4, aqueous buffer): 740 µg/mL
- solubility thermodynamic (physchem [1]; pH 7.4, aqueous buffer): 1220 µg/mL

SMILES: C[C@]12CC[C@@H]3c4ccc(OC(=O)c5ccccc5O)cc4C[C@@H](CCCCCCCCC[S+]([O-])CCCC(F)(F)C(F)(F)F)[C@H]3[C@@H]1CC[C@@H]2O (stereo partly drawn) [Example 6, (7R,8R,9S,13S,14S,17S)-17-hydroxy-13-methyl-7-(9-((4,4,5,5,5-pentafluoropentyl)sulfinyl)nonyl)-7,8,9,11,12,13,14,15,16,17-decahydro-6H-cyclopenta[a]phenanthren-3-yl 2-hydroxybenzoate]
- Increase in solubility compare to fulvestrant (Fold) [2]: 562 Fold
- solubility at 4 h [2]: 2.7 µM (≈ 1.96 µg/mL)

SMILES: C[C@]12CC[C@@H]3c4ccc(OC(=O)N5CCC(N6CCCCC6)CC5)cc4C[C@@H](CCCCCCCCC[S+]([O-])CCCC(F)(F)C(F)(F)F)[C@H]3[C@@H]1CC[C@@H]2O (stereo partly drawn) [Example 29, (7R,8R,9S,13S,14S,17S)-17-hydroxy-13-methyl-7-(9-((4,4,5,5,5-pentafluoropentyl)sulfinyl)nonyl)-7,8,9,11,12,13,14,15,16,17-decahydro-6H-cyclopenta[a]phenanthren-3-yl [1,4′-bipiperidine]-1′-carboxylate hydrochloride]
- Thermodynamic solubility (mg/mL) pH 4.0 ([5]; sodium acetate buffer pH 4.0, 24 h room temperature, test compound concentration 1 mg/mL, hydrochloride): 0.75 mg/mL

SMILES: CCOP(=O)(OCC)Oc1ccc2c(c1)C[C@@H](CCCCCCCCC[S+]([O-])CCCC(F)(F)C(F)(F)F)[C@@H]1[C@@H]2CC[C@]2(C)[C@@H](O)CC[C@@H]12 (stereo partly drawn) [Example 7, diethyl ((7R,8R,9S,13S,14S,17S)-17-hydroxy-13-methyl-7-(9-((4,4,5,5,5-pentafluoropentyl)sulfinyl)nonyl)-7,8,9,11,12,13,14,15,16,17-decahydro-6H-cyclopenta[a]phenanthren-3-yl) phosphate]
- Increase in solubility compare to fulvestrant (Fold) [2]: 35 Fold
- solubility at 4 h [2]: 0.2 µM

- solubility thermodynamic at 24 h ([5]; phosphate buffered saline (PBS), pH 7.4, aqueous buffer): 1.2 µg/mL (≈ 1.98 µM)
- solubility thermodynamic at 24 h ([5]; sodium acetate buffer, pH 4, aqueous buffer): 2.9 µg/mL (≈ 4.78 µM)
- solubility at 4 h [2]: 0.005 µM (≈ 0.00303 µg/mL)
SMILES: C[C@]12CC[C@@H]3c4ccc(O)cc4C[C@@H](CCCCCCCCC[S+]([O-])CCCC(F)(F)C(F)(F)F)[C@H]3[C@@H]1CC[C@@H]2O (some centres unmarked) [Fulvestrant]
